The source of these data is doi:10.1101/2024.03.08.583891v2 (biorxiv, 2024).

Like-named read-outs stand apart in the source and are kept apart here.

Holding throughout (assay): tissue or organelle
Holding throughout (settings): read-out: Intrinsec activity %

The target of assay [1] is T1, NMDA receptor histamine site (NMDA(HA)R), native NMDAR of rat hippocampal synaptosomes (Rattus norvegicus, UniProt P35439+Q00960).
The target of assay [2] is T1, NMDA receptor histamine site (NMDA(HA)R), native NMDAR of rat hippocampal synaptosomes. This is another data set of the same source.
Assay [3] has the same target. The source holds these as a separate data set.
Assay [4] shares this target. This is another data set of the same source.
Assay [5] shares this target. The source holds these as a separate data set.
Assay [6] has the same target. The source holds these as a separate data set.
For assay [7] the target is unchanged. The source holds these as a separate data set.
Assay [8] has the same target. This is another data set of the same source.

T1 sequence (Q00960 27-1482, other chains not shown): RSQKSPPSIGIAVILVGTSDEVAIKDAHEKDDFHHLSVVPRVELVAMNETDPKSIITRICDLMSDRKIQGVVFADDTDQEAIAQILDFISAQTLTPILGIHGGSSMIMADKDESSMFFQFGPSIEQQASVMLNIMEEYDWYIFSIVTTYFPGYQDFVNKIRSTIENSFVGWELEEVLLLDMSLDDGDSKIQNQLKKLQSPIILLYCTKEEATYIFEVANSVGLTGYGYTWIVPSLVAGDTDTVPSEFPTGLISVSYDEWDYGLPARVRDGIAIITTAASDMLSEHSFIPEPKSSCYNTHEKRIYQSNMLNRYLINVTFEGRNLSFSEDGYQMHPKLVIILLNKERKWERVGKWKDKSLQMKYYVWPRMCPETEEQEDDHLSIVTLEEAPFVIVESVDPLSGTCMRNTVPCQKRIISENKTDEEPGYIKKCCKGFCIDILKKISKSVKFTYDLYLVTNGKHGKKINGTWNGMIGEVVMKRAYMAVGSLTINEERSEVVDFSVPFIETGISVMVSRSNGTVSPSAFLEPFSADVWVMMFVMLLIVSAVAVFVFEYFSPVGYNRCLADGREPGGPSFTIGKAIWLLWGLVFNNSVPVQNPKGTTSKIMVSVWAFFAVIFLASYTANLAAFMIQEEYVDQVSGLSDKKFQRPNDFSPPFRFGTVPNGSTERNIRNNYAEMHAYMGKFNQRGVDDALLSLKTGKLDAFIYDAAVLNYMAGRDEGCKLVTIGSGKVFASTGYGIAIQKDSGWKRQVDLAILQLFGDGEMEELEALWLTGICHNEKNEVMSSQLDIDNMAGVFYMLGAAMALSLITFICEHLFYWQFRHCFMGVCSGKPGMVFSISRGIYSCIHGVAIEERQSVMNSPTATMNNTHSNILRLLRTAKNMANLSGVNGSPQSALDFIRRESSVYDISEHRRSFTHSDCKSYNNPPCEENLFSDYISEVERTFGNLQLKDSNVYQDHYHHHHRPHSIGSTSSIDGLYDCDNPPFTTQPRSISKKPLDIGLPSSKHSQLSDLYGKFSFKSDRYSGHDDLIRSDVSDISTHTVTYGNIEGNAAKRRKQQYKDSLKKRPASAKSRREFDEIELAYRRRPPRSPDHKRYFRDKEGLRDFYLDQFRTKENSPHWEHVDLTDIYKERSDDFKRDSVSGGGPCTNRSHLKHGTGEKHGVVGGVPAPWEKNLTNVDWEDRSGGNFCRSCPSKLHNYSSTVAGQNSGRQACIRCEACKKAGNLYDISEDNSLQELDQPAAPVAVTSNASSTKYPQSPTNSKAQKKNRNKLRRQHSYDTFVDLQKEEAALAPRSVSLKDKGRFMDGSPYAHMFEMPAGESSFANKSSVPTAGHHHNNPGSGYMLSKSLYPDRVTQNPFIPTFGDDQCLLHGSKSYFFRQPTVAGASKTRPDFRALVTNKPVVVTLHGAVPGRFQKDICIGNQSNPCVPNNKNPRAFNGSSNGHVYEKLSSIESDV

As to `Nc1nc2ccc(CCNCCCCc3ccccc3)cc2s1` [FUBn293], the Emax in assay [1] came to 39%. With `CC1(C)C(C(=O)c2cn(Cc3ccc(F)cc3)c3ccccc23)C1(C)C` [Fub 144], the Emax in assay [2] came to 35%. Still for that read-out and setting: the same measure for `Nc1nc(C2CCC(N)CC2)cs1` (stereo not shown) [Fub 206]: 40%; for `Nc1nc(C2CCC(N)CC2)c[se]1` (stereo not shown) [Fub 210]: 33%. As for `NCCCCCc1csc(N)n1` [Fub 216], in assay [3], the Emax is 20%. Consider `Cc1nc(N)sc1CCCCN` [Fub 217], for which the Emax in assay [4] was 52%. As to `NCCCCc1cnc(N)s1` [Fub 218], the Emax in assay [2] came out at 81%. On to `NCc1ccc2nc(N)sc2c1` [Fub 223], for which the Emax in assay [5] was found to be 34%. Turning to `Nc1nc(C2CCCC(N)C2)cs1` (stereo not shown) [Fub 235], in assay [2], the Emax was found to be 38%.

For `Cc1nc(N)sc1CCCCCN` [Fub 238], in assay [4], the Emax was 50%. On to `NCCCCCCc1csc(N)n1` [Fub 239], for which the Emax in assay [3] was 23%. `CCc1nc(N)sc1CCN` [Fub 240]: in assay [4], the Emax stood at 82%. With `Cc1sc(N)nc1CCCN` [Fub 241], in assay [3], the Emax stood at 53%.

`Cc1sc(N)nc1/C=C/CN` [Fub 242]: the Emax in assay [2] turned out to be 75%.

Consider `NCCc1ccc2nc(N)sc2c1` [Fub 247], for which the Emax in assay [5] came to 48%. On to `Nc1nc2ccc(CCNCC3CCCCC3)cc2s1` [Fub 266], for which, in assay [6], the Emax came to 48%.

On to `CCNCCc1ccc2nc(N)sc2c1` [Fub 275], for which the Emax in assay [7] is 15%. The same measure, in the same setting: the same measure for `CCCNCCc1ccc2nc(N)sc2c1` [Fub 276]: 15%. On to `Nc1nc2ccc(CCNCCc3ccccc3)cc2s1` [Fub 281], for which the Emax in assay [6] is 30%.

For `CCCCNCCc1ccc2nc(N)sc2c1` [Fub 286], in assay [7], the Emax is 31%. On the same count and under the same terms, the same measure for `CCCCCNCCc1ccc2nc(N)sc2c1` [Fub 287]: 30%; for `CCCCCCNCCc1ccc2nc(N)sc2c1` [Fub 288]: 35%. Still for that read-out and setting: the same measure for `CC(C)(C)NCCc1ccc2nc(N)sc2c1` [Fub 289]: 23%; for `CCC(C)(C)NCCc1ccc2nc(N)sc2c1` [Fub 290]: 27%; for `CCCC(C)(C)NCCc1ccc2nc(N)sc2c1` [Fub 291]: 32%. `Nc1nc2ccc(CCNCCCc3ccccc3)cc2s1` [Fub 292]: in assay [6], the Emax was found to be 32%. `NCCCCCc1cnc(N)s1` [Fub 295]: the Emax in assay [2] is 41%. `NCCCCCCc1cnc(N)s1` [Fub 296]: the Emax in assay [2] stood at 41%.

With `Cc1ccc(CCNCCc2ccc3nc(N)sc3c2)cc1` [Fub 297], the Emax in assay [6] amounted to 32%.

As to `COc1ccc(CCNCCc2ccc3nc(N)sc3c2)cc1` [Fub 298], in assay [6], the Emax came to 19%. The same measure, in the same setting: for `Nc1nc2ccc(CCNCc3ccccc3)cc2s1` [Fub 299] the value was 36%. In the case of `NCCc1ccc2nc(N)[se]c2c1` [Fub 300], in assay [5], the Emax worked out at 45%. On to `CCc1nc(N)sc1CCCN` [Fub 301], for which the Emax in assay [4] came out at 61%.

Turning to `Cc1sc(N)nc1CCCCN` [Fub 302], the Emax in assay [3] came to 29%.

For `CCCCCCCNCCc1ccc2nc(N)sc2c1` [Fub 303], the Emax in assay [7] is 33%. Still for that read-out and setting: for `CCCCCCCCNCCc1ccc2nc(N)sc2c1` [Fub 304] the value was 33%; for `CCCCCCCCCNCCc1ccc2nc(N)sc2c1` [Fub 305], 30%. Take `Nc1nc2ccc(CCNCCCCCc3ccccc3)cc2s1` [Fub 306]: the Emax in assay [6] was determined as 33%. Same read-out and setting: for `Nc1nc2ccc(CCNCCCCCCc3ccccc3)cc2s1` [Fub 307] the value was 33%. Take `CCc1nc(N)sc1CCCCN` [Fub 309]: the Emax in assay [4] was found to be 40%.

With `COc1cc2c(cc1OC)CC(NCC(O)c1ccc(C)cc1)CC2` (stereo not shown) [ST 563], the Emax in assay [7] came out at 50%. Still for that read-out and setting: for `Clc1nc2ccc(CCNCCCCc3ccccc3)cc2s1` [ST 575] the value was 40%; for `Sc1nc2ccc(SCCNCCCCc3ccccc3)cc2s1` [ST 576], 38%; for `CCN(CCc1ccccc1)C1CCc2cc(OC)c(OC)cc2C1` (stereo not shown) [ST 577], 25%. Take `COc1ccc(C(O)CNC2CCc3cc(OC)c(OC)cc3C2)cc1` (stereo not shown) [ST 578]: in assay [7], the Emax was determined as 30%.

For `CCCNC1CCc2ncsc2C1` (stereo not shown) [ST 581], the Emax in assay [8] amounted to 50%. The same measure, in the same setting: the same measure for `COc1cc2c(cc1OC)CC(NCC(O)c1ccc(C(F)(F)F)cc1)CC2` (stereo not shown) [ST 590]: 30%; for `CCN(CC(O)c1ccc(C(F)(F)F)cc1)C1CCc2cc(OC)c(OC)cc2C1` (stereo not shown) [ST 592]: 30%; for `COc1cc2c(cc1OC)CC(NCC(O)c1ccc(F)cc1)CC2` (stereo not shown) [ST 593]: 25%.
